We go through 23 molecules from patent US20100240713A1, “AROMATIC AND HETEROAROMATIC COMPOUNDS USEFUL IN TREATING IRON DISORDERS” (XENON PHARMACEUTICALS INC., priority 2007, published 2010).

Structures can show the parent of a compound that is named as a salt. A value given as a limit tells only on which side of the number the result lay.

The IC50 is the concentration at which inhibition is half-maximal. Low values mean higher potency, high ones lower potency. As usually defined, the melting point is the temperature, or range, at which the solid turns liquid.

The target of the first data set is T1, DMT1 (Homo sapiens, UniProt P49281).
T1 sequence (P49281 1-568): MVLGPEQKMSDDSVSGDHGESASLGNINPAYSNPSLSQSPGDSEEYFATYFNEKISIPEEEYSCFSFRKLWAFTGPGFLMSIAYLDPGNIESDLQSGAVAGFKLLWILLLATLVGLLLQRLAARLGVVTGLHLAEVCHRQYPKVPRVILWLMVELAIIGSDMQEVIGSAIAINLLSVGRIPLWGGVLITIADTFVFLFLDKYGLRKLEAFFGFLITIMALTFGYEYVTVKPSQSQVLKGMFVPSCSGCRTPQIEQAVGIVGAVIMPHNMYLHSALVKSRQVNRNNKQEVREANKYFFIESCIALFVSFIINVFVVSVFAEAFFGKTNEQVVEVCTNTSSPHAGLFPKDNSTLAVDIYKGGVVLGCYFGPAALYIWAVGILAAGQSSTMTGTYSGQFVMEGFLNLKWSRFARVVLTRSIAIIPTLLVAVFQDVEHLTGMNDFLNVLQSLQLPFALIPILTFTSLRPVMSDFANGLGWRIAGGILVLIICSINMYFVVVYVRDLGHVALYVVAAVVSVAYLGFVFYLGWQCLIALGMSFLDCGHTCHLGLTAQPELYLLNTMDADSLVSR
The experiment in a line: DMT1 activity assay (IC50 activity level, Table 1). The note with it: inhibition of DMT1. The format is cell-based. An excerpt:
This example discloses various in vitro assay for testing and profiling test agents against DMT1 stably expressed in cells of either an endogenous or recombinant origin. These assays can use stable cell lines overexpressing DMT1 or intestinal cells and intestinal tissue expressing endogenous DMT1. DMT1 function could also be assessed in other cell types that express DMT1. Of greatest relevance would be the erythrocytes (e.g. K562 cells) or hepatocytes (e.g. […]).
DMT1 function can be assessed in a number of ways, including monitoring fluorescence changes of an iron fluorophore (e.g. calcein), monitoring uptake of radiolabelled iron (^55Fe or ^59Fe) (Picard et al., J. Biol. Chem., 2000, 275(46):35738-45 and Wetli et al., Chem. Biol. 2006 September; 13(9):965-72), or by assessing the current or transport of iron and other metals into the cells or tissues using standard electrophysiological techniques (Gunshin et al., Nature, 1997, 388(6641):482-8.).
Variations of these assays involve alterations of incubation times, the iron status of the cells and tissues (which may be modulated by chemical chelators or by harvesting from iron deficient animals), the metal cation detected and the pH of the reaction can generally be made by conventional techniques known to those skilled in the art.
The Example numbers provided in Table 1 correspond to the Examples herein: […]
For the molecule `CN/C(=N\C#N)NCc1c(C)cc(C)c(CN/C(=N/C#N)NC)c1C` [Example 2, 1,3-di[(2-cyano-3-methylguanidino)methyl]-2,4,6-trimethylbenzene], the IC50 was ≥ 1000 nM.

Consider `N=C(N)Cc1cccc(CC(=N)N)c1` [Example 4, 2,2′-(1,3-phenylene)diacetimidamide], for which the IC50 was ≥ 1000 nM.

In the case of `CNC(=N)SCc1c(C)cc(C)c(CSC(=N)NC)c1C.Cl` [Example 7, 1,3-di[(methylamidino)thiomethyl]-2,4,6-trimethylbenzene 4-methylbenzenesulfonate hydrochloride], the 50% inhibitory concentration (IC50) was ≥ 1000 nM.

Tested on in the next data set: not given
Experiment: not given
Conditions: not given
`CCOC(=O)c1cc(C(=O)OCC)c(CSC(=N)N)cc1CSC(=N)N` (as salt: hydrobromid) [Example 3.4, diethyl 4,6-bis(carbamimidoylthiomethyl)isophthalate dihydrobromide] gave a melting point of 237 to 238 °C.

`N=C(N)SCc1cccc(CSC(=N)N)n1` (as salt: hydrobromid) [Example 3.12, pyridine-2,6-diylbis(methylene)dicarbamimidothioate dihydrobromide]: the melting point lay within 208 to 210 °C. For the molecule `N=C(N)SCc1cccc2cccc(CSC(=N)N)c12` (as salt: hydrobromid) [Example 3.13, naphthalene-1,8-diylbis(methylene)dicarbamimidothioate dihydrobromide], the melting point lay within 230 to 233 °C.

In the case of `N#Cc1c(CSC(=N)N)cccc1CSC(=N)N` (as salt: hydrobromid) [Example 3.14, (2-cyano-1,3-phenylene)bis(methylene)dicarbamimidothioate dihydrobromide], the melting point was 270 to 272 °C (dec.). Regarding `COc1c(CSC(=N)N)cc(C)cc1CSC(=N)N` (as salt: hydrobromid) [Example 3.18, (2-methoxy-5-methyl-1,3-phenylene)bis(methylene)dicarbamimidothioate dihydrobromide], the melting point fell in the range of 236 to 239 °C. Molecule `Cc1c(CSC(=N)N)cccc1CSC(=N)N` (as salt: hydrobromid) [Example 3.21, (2-methyl-1,3-phenylene)bis(methylene)dicarbamimidothioate dihydrobromide] had a melting point of 258 to 261 °C. In the case of `Cc1c(C)c(C)c(CSC(=N)N)c(CSC(=N)N)c1C` (as salt: hydrobromid) [Example 3.22, (3,4,5,6-tetramethyl-1,2-phenylene)bis(methylene)dicarbamimidothioate dihydrobromide], the melting point is > 265 °C.

In turn, `CC(C)(SC(=N)N)c1cccc(C(C)(C)SC(=N)N)c1` (as salt: hydrobromid) [Example 6, 2-{1-[3-(1-carbamimidoylsulfanyl-1-methylethyl)phenyl]-1-methylethyl}-isothiourea dihydrobromide] showed a melting point of 142 to 144 °C. The same measure, in the same setting: to `Cc1cc(C)c(C(C)SC(=N)N)c(C)c1C(C)SC(=N)N` (centres unmarked) (as salt: hydrobromid) [Example 6.1, 2-{1-[3-(1-carbamimidoylsulfanylethyl)-2,4,6-trimethylphenyl]ethyl}-isothiourea dihydrobromide] belongs 204 to 206 °C; to `Cc1cc(CSC(=N)N)c(O)c(CSC(=N)N)c1` (as salt: hydrobromid) [Example 6.2, (2-hydroxy-5-methyl-1,3-phenylene)bis(methylene)dicarbamimidothioate dihydrobromide], 223 to 225 °C. `Cc1c(C)c(CSC(=N)N)c(C)c(CSC(=N)N)c1C` (as salt: hydrochloride) [Example 3.5, (2,4,5,6-tetramethyl-1,3-phenylene)bis(methylene)dicarbamimidothioate dihydrochloride]: the melting point is > 260 °C. `N=C(N)SCc1c(Cl)c(Cl)c(Cl)c(CSC(=N)N)c1Cl` (as salt: hydrochloride) [Example 3.6, (2,4,5,6-tetrachloro-1,3-phenylene)bis(methylene)dicarbamimidothioate dihydrochloride] yielded a melting point of 208 to 210 °C.

With `N=C(N)SCc1nnc(CSC(=N)N)n1N` (as salt: hydrochloride) [Example 3.7, (4-amino-4H-1,2,4-triazole-3,5-diyl)bis(methylene)dicarbamimidothioate dihydrochloride], the melting point is 213 °C (dec.). The same measure, in the same setting: under `N=C(N)SCc1n[nH]c(CSC(=N)N)n1` (as salt: hydrochloride) [Example 3.8, (1H-1,2,4-triazole-3,5-diyl)bis(methylene)dicarbamimidothiodate dihydrochloride] stands 196 to 200 °C; under `Cc1cc(C)c(CSC(=N)N)cc1CSC(=N)N` (as salt: hydrochloride) [Example 3.16, (4,6-dimethyl-1,3-phenylene)bis(methylene)dicarbamimidothioate dihydrochloride], 248 to 251 °C. `Cc1c(CSC(=N)N)cc(CSC(=N)N)c(C)c1Br` (as salt: hydrochloride) [Example 3.17, (5-bromo-4,6-dimethyl-1,3-phenylene)bis(methylene) dicarbamimidothioate dihydrochloride] returned a melting point of 270 to 273 °C. Turning to `Cc1c(O)c(C)c(CSC(=N)N)c(C)c1CSC(=N)N` (as salt: hydrochloride) [Example 3.19, (5-hydroxy-2,4,6-trimethyl-1,3-phenylene)bis(methylene) dicarbamimidothioate dihydrochloride], the melting point lay in the range of 175 to 178 °C.

The molecule `Cc1nc(C)c(CSC(=N)N)c(C)c1CSC(=N)N` (as salt: hydrochloride) [Example 8, (2,4,6-trimethylpyridine-3,5-diyl)bis(methylene)dicarbamimidothioate dihydrochloride] had a melting point of 185 to 187 °C. Turning to `N=C(N)SC(=O)c1sc(C(=O)SC(=N)N)c(Cl)c1Cl` (as salt: hydrochloride) [Example 9, 2-(5-carbamimidoylsulfanecarbonyl-3,4-dichlorothiophene-2-carbonyl)isothiourea dihydrochloride], the melting point fell in the range of 215 to 218 °C. `Cc1cc(C)c(CNC(=N)N)c(C)c1CNC(=N)N` (as salt: toluenesulfonate) [Example 1, N-(3-guanidinomethyl-2,4,6-trimethylbenzyl)guanidine, bis(p-toluenesulfonate)]: the melting point is > 250 °C. Same read-out and setting: under `CN/C(=N\C#N)NCc1c(C)cc(C)c(CN/C(=N/C#N)NC)c1C` [Example 2, 1,3-di[(2-cyano-3-methylguanidino)methyl]-2,4,6-trimethylbenzene] stands 270 to 272 °C; under `N=C(N)Cc1cccc(CC(=N)N)c1` [Example 4, 2,2′-(1,3-phenylene)diacetimidamide], 200 to 205 °C; under `CNC(=N)SCc1c(C)cc(C)c(CSC(=N)NC)c1C.Cl` [Example 7, 1,3-di[(methylamidino)thiomethyl]-2,4,6-trimethylbenzene 4-methylbenzenesulfonate hydrochloride], 223 to 225 °C.
